Test results: patent US7294618B2, “Glucopyranosyloxypyrazole derivatives and medicinal use thereof” (Kissei Pharmaceutical Co., Ltd., priority 2001, dated 2007)

Legend:
human SGLT2 = biological target: T1, human SGLT2 (Homo sapiens, UniProt P31639, I433V); assay: Assay for inhibitory effect on human SGLT2 activity (uptake of methyl-α-D-glucopyranoside); assay type: cell-based; conditions: for IC50: COS-7 cells expressing transiently human SGLT2, uptake of methyl-α-D-(U-14C)glucopyranoside, 37° C., 2 hours
T1 construct: expressed in transfected cells; host or cells: COS-7 cells (RIKEN CELL BANK RCB0539), transient, electroporation of KL29
T1 sequence (P31639 1-672 I433V): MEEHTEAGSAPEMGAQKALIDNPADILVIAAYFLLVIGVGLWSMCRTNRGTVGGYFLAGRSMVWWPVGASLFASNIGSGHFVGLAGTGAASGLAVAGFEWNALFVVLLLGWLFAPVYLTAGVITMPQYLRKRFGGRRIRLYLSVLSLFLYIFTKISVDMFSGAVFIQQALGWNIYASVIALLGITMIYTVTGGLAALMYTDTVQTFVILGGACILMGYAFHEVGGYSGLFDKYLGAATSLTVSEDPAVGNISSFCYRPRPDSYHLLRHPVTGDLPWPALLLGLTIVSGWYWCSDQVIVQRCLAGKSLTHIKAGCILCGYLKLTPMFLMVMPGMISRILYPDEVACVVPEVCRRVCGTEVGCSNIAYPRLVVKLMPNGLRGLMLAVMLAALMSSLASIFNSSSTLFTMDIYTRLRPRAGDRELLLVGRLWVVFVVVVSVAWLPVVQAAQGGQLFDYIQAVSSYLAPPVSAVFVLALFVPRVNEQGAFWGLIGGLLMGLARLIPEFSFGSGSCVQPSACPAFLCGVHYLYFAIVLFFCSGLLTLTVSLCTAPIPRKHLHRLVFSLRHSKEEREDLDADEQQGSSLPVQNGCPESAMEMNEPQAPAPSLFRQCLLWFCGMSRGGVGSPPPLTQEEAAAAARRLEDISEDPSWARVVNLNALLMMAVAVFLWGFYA
Protocol: • Assay for Inhibitory Effect on Human SGLT2 Activity • 1) Construction of the Plasmid Vector Expressing Human SGLT2
Preparation of the cDNA library for PCR amplification was performed by reverse transcription of a total RNA deprived from human kidney (Ori gene) with oligo dT as the primer, using SUPERSCRIPT Preamplification System (Gibco-BRL: LIFE TECHNOLOGIES). The DNA fragment coding for human SGLT2 was amplified by the PCR reaction, in which the human kidney cDNA library described above was used as the template and the following oligo nucleotides 0702F and 0712R, presented as Sequence Numbers 1 and 2 respectively, were used as the primers. The amplified DNA fragment was ligated into pCR-Blunt (Invitrogen), a vector for cloning, according to standard method of the kit. The Escherichia coli HB101 was transformed according to usual method and then selection of the transformants was performed on the LB agar medium containing 50 μg/mL of kanamycin. After plasmid DNA was extracted and purified from the one of the transformants, amplifying of the DNA fragment coding for human SGLT2 was performed by the PCR reaction, in which the following oligo nucleotides 0714F and 0715R, presented as Sequence Numbers 3 and 4 respectively, were used as the primers. The amplified DNA fragment was digested with restriction enzymes, Xho I and Hind III, and then purified with Wizard Purification System (Promega). This purified DNA fragment was inserted at the corresponding restriction sites of pcDNA3.1 (−) Myc/His—B (Invitrogen), a vector for expressing of fusion protein. The Escherichia coli HB101 was transformed according to usual method and then selection of the transformant was performed on the LB agar medium containing 100 μg/mL of ampicillin. After plasmid DNA was extracted and purified from this transformant, the base sequence of the DNA fragment inserted at the multi-cloning sites of the vector pcDNA3. 1 (−) Myc/His—B was analyzed. […] Sequentially, a clone in which valine is substituted for isoleucine-433 was obtained. This plasmid vector expressing human SGLT2 in which the peptide presented as Sequence Number 5 is fused to the carboxyl terminal alanine residue was designated KL29.
• 2) Preparation of the Cells Expressing Transiently Human SGLT2
KL29, the plasmid coding human SGLT2, was transfected into COS-7 cells (RIKEN CELL BANK RCB0539) by electroporation. Electroporation was performed with EC100 Electroporater (E-C APPARATUS CORPORATION) under the condition: 400 V, 1260 μF, 3.2×10^6 cells of COS-7 cell and 20 μg of KL29 in 800 μL of OPTI-MEM I medium (Gibco-BRL: LIFE TECHNOLOGIES) in the 0.4 cm type cuvette. After the gene transfer, the cells were harvested by centrifugation and resuspended with OPTI-MEM I medium (3.2 mL/cuvette). […]

[1] = normal mice; J. Med. Chem., Vol. 39, pp. 3920-3928 (1996); cited from earlier work

Structure (SMILES) | IC50 (human SGLT2) | inhibitory activity in human SGLT2 (human SGLT2; statement in words) | amount of excreted glucose [1]
CCc1ccc(Cc2c(O[C@@H]3O[C@H](CO)[C@@H](O)[C@H](O)[C@H]3O)nn(-c3ccccc3)c2C)cc1 [Example 18, 4-[(4-Ethylphenyl)methyl]-3-(β-D-glucopyranosyloxy)-5-methyl-1-phenyl-1H-pyrazole] | 270 nM | – | –
Cc1c(Cc2ccc(OC(C)C)cc2)c(O[C@@H]2O[C@H](CO)[C@@H](O)[C@H](O)[C@H]2O)nn1-c1ccccc1 [Example 20, 3-(β-D-Glucopyranosyloxy)-4-[(4-isopropoxyphenyl)methyl]-5-methyl-1-phenyl-1H-pyrazole] | 200 nM | – | –
CSc1ccc(Cc2c(C(F)(F)F)[nH][nH]c2=O)cc1 [WAY-123783] | > 100000 nM | extremely weak | increased
